Results as given in patent publication US10758609B2, “Cross-reactive T-cell epitopes of HIV, SIV, and FIV for vaccines in humans and cats” (priority 2015, dated 2020).

System: PBMC from HIV^+ subjects
Experiment: IFNγ ELISpot of PBMC from HIV+ human subjects
Format: cell-based
Method: The overlapping peptide pools of FIV and HIV-1 structural and enzyme proteins were used to stimulate the […] (PBMC) and the T cells from HIV^+ subjects as previously described for epitope mapping of HIV-1 and FIV p24 and reverse transcriptase (RT) (Sanou et al., 2013; Roff et al., 2015). The individual peptides in those peptide pools with positive responses to either interferon-γ (IFNγ) production and/or T-cell proliferation were determined with IFNγ ELISpot analysis and CFSE-based CD3^+CD4^+ and CD3^+CD8^+ T-cell proliferation analyses followed by the FACS-based intracellular staining (ICS) for cytolysin (perforin) and cytotoxin (granzyme A [GrzA] and GrzB) (Sanou et al., 2013; Roff et al., 2015). Besides viral p24 and RT proteins, the identical approach was used to identify anti-HIV/FIV T-cell epitopes on viral matrix (MA), nucleocapsid (NC), protease (PR), RNAase, integrase (IN), surface envelope (SU Env), and transmembrane envelope (TM Env) (FIG. 12).
Since our goal is to develop HIV vaccine for human use, the HIV peptides (Table 10) counterpart of the cross-reactive FIV peptides shown in Table 9 were tested with PBMC and T cells from HIV^+ subjects. The immune functions analyzed were human IFNγ production by ELISpot, cytolysin/cytotoxin production by ICS, and CFSE-based proliferation of CD3^+CD4^+ and CD3^+CD8^+ T cells from HIV^+ subjects (Table 10, the first set of results). In addition, the Los Alamos National Laboratories (LANL) database was used to identify the HLA allele(s) of the HIV epitope sequence with CTL activity that can exist within the sequence of the conserved counterpart HIV peptide (Table 9, LANL CTL). The bold HLA class-I supertypes and the bold 2-digit alleles are those on the “Optimal CD8^+ CTL Epitopes” list and those without bold are alleles for potential CTL epitope. […] The HLA class II such as HLA-DRB1 has yet to be fully classified into supertypes, and therefore the 4-digit resolution nomenclatures for the HLA-DRB1 alleles are shown.
In addition, these peptides were also analyzed for IFNγ production, CD4^+ and CD8^+ T-cell proliferation, and cytolysin (perforin) and cytotoxin (granzyme A (GrzA) and GrzB)) mRNA production of PBMC or T cells from 8-30 HIV^+ human subjects. The frequency of responders is based on the individual responses of the vaccinated cats or HIV^+ human subjects after subtraction of the average of the responses of PBMC or T cells from 6-8 non-vaccinated cats or 8-20 HIV-negative human subjects.
The threshold for positive IFNγ and IL2 ELISpot responses is ≥50 spot-forming units (SFU) per 10^6 PBMC. The threshold for CFSE-based CD4^+ and CD8^+ T-cell proliferation is ≥2% CD4^+ T-cell CFSE^low or CD8^+ T-cell CFSE^low. The threshold of FACS-based intracellular cytokine staining (ICS) is ≥0.2%. […] The nine FIV peptides in black were used in the current MAP vaccine trial, whereas the 13 peptides in blue were not used. […] The MAPs and their corresponding peptide(s) were also tested for their ability to enhance or suppress in vitro FIV infection of feline PBMC (E/S of peptides and E/S of MAP).
The counterpart HIV-1 peptides of the FIV peptides were also tested for immunogenicity using PBMC and T cells from HIV^+ human subjects. […] The HRT7-1 and HRT7-2 were also tested with cells from HIV^+ subjects on ART. The threshold for positive IFNγ ELISpot response is ≥75 spot-forming units (SFU) per 10^6 PBMC. The threshold for CFSE-based CD4^+ (CD4^+ T) and CD8^+ (CD8^+ T) T-cell proliferation is ≥2% CD4^+ T-cell CFSE^low or CD8^+ T-cell CFSE^low. The threshold of intracellular cytokine staining (ICS) of FACS-based cytolysin (perforin) and cytotoxins (granzymes A and B) in CD4^+ T cells (CyCD4) and CD8^+ T cells (CyCD8) is ≥0.2%.

| Sequence | IFNγ, frequency of responders (FIV epitope peptide) | IFNγ, frequency of responders (FIV peptides) |
| --- | --- | --- |
| AGLRQSLEQYQVVKQ [FSU4] | — (0%-1.4% (—)) | — (0%-1.4%(—)) |
| KFLYTAFAMQELR [FTM4-3] | — (0%-1.4% (—)) | — (0%-1.4%(—)) |
| KKKSGKWRMLIDFRV [FRT3-3] | ++++ (>54% (++++)) | ++++ (>54% (++++)) |
| LLLILCLPTLVDCIRN [FTM8(20)] | — (0%-1.4% (—)) | — (0%-1.4%(—)) |
| PTDMATLIMAAPGCA [Fp4-3] | — (0%-1.4% (—)) | — (0%-1.4%(—)) |
| WRMLIDFRVLNKL [FRT3-4] | — (0%-1.4% (—)) | — (0%-1.4%(—)) |
